For 11 compounds, IC50 and GI50 results are on record in patent US20260138959A1, “QUINAZOLINE DERIVATIVE COMPOUND AND USE THEREOF” (VORONOI INC., priority 2021, published 2026).

The target in one experiment is T1, human PDGFR-β(wt) (Homo sapiens, UniProt P09619).
T1 construct: purchased Signalchem P13-11G
Nature of the experiment: Enzyme inhibitory activity, ADP-Glo kinase assay, PDGFR-β(wt). The experiment is classed as biochemical. To be noted: read-out: PDGFR-β (IC50 class). As for the experimental part: In order to evaluate the inhibitory activity of the compounds synthesized according to the above examples on PDGFR-α(wt), PDGFR-β(wt), c-KIT(wt), and c-KIT(D816V) kinases, the following method was performed. The compounds of examples were reacted with purified human PDGFR-α(wt) (Signalchem #P12-18G) enzyme, human PDGFR-β(wt) (Signalchem #P13-11G) enzyme, human c-KIT(wt) (Signalchem #K06-11BG) enzyme, human c-KIT(D816V) (Signalchem #C06-12LG) enzyme, and the enzyme inhibitory abilities were evaluated by the following method.
The reaction buffer was used as a composition of 40 mM Tris-HCl pH7.4, 20 mM MgCl2, 0.5 mg/ml BSA, 50 μM DTT, and the reactions of all the tests were carried out on the reaction buffer. The compound was diluted in 12 steps using a serial dilution method from a 10 mM DMSO stock, and the enzyme activity was measured at a final compound concentration of 10˜0.00005645 μM. During the test, the enzyme activity was confirmed using in vitro ADP-Glo™ kinase assay (Promega) after reacting with the proper concentration of human PDGFR-α(wt) enzyme, human PDGFR-β(wt), human c-KIT(wt) enzyme, and human c-KIT(D816V) enzyme with purified ATP and enzyme substrate at 25° C. for 1˜2 hours. At a ratio of 2:2:1, an enzyme-active reaction solution, an ADP-Glo reaction solution, and an enzyme-active detection solution were reacted to measure the inhibition of the enzyme's activity with luminoscence. Based on the […] of the enzyme activity of the solvent control that was not treated with the compound, the degree of enzyme activity inhibition was calculated according to the treatment concentration of each compound, and the concentration of each compound that inhibits 50% of enzyme activity was determined as IC50 (nM) value and the value was obtained by using GraphPad Prism 8.3.0 (GraphPad software Inc., San Diego) software. (A: IC50≤50 nM; B: 50 nM<IC50≤100 nM; C: 100 nM<IC50≤500 nM; D: IC50>500 nM).

In a further experiment the test system is Ba/F3-c-KIT(D816V). Nature of the experiment: Proliferation inhibitory activity on Ba/F3 cell (CellTiter-Glo, 72 hours), c-KIT(D816V). The format is cell-based. As to conditions: Mus musculus, BaF3, read-out: Ba/F3 (nM) c-KIT (D816V) (GI50 class). A digest of the protocol:
(§1)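 Ba/F3 lines (TEL-PDGFRα WT, TEL-PDGFRβ WT, c-KIT D816V, V560G/D816V, D814Y) were seeded at 3×10^3 cells/well and exposed to 12-point, 3-fold dilutions (final 0.00005-10 μM) for 72 h at 37 °C. CellTiter-Glo signal was read after about 10 min mixing; GI50 (nM) was calculated relative to vehicle.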

The subject of another experiment is c-KIT V560G/D816V. Nature of the experiment: Proliferation inhibitory activity on Ba/F3 cell (CellTiter-Glo, 72 hours), c-KIT V560G/D816V. The experiment is classed as cell-based. As to conditions: Mus musculus, BaF3, c-KIT V560G/D816V cells, read-out: Cell (nM) c-KIT V560G/D816V (GI50 class). Summed up:
as §1
A general note: ATP-based viability assays read luminescence as a measure of living cells.

T1 sequence (P09619 33-1106): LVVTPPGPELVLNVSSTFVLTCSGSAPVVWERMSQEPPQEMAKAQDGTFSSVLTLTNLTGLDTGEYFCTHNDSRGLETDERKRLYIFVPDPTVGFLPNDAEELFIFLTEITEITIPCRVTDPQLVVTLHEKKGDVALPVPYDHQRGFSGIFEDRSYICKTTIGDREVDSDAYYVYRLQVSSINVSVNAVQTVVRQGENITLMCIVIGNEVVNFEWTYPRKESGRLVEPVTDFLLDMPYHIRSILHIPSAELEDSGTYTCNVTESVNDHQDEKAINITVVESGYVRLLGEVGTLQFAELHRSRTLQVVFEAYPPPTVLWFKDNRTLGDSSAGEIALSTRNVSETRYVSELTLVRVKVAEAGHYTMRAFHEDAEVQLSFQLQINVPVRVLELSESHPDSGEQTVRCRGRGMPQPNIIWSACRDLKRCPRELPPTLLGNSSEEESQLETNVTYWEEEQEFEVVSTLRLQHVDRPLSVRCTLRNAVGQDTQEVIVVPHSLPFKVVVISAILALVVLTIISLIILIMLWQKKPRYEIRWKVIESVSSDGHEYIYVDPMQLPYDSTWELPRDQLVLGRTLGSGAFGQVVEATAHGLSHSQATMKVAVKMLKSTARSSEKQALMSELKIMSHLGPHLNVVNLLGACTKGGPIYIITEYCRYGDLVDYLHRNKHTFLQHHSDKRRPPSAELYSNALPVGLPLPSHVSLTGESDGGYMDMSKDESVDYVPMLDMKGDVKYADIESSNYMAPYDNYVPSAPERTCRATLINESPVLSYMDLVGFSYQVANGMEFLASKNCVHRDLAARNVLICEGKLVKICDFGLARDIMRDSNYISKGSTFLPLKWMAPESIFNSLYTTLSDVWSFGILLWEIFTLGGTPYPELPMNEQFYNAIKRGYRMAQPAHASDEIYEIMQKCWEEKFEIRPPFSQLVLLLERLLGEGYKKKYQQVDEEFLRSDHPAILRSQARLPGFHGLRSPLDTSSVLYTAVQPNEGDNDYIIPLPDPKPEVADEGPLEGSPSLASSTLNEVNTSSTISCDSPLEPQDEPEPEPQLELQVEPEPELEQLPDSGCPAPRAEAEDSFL

As usually defined, the IC50 is the concentration at which inhibition is half-maximal. Turning to `COc1cc2c(-c3ccc(NC(=O)Cc4ccc(C(F)(F)F)nc4)cc3)ncnc2cc1OCC1CCNCC1` [Example 59, N-(4-(6-methoxy-7-(piperidin-4-ylmethoxy)quinazolin-4-yl)phenyl)-2-(6-(trifluoromethyl)pyridin-3-yl)acetamide], the IC50 at human PDGFR-β(wt) is not above 50 nM. For the same compound, the GI50 with Ba/F3-c-KIT(D816V) is 200 to 500 nM.

In the case of `COc1cc2c(-c3ccc(NC(=O)Cc4ccc(Cl)c(C(F)(F)F)c4)cc3)ncnc2cc1OCCCN1CCN(C)CC1` [Example 82, 2-(4-chloro-3-(trifluoromethyl)phenyl)-N-(4-(6-methoxy-7-(3-(4-methylpiperazin-1-yl)propoxy)quinazolin-4-yl)phenyl)acetamide], the IC50 on human PDGFR-β(wt) was not above 50 nM. In addition, the GI50 with Ba/F3-c-KIT(D816V) and in the experiment on c-KIT V560G/D816V was not above 200 nM in each case.

In the case of `COc1cc2c(-c3ccc(NC(=O)Cc4ccc(C(F)(F)F)cc4)cc3)ncnc2cc1OC[C@H]1CCCNC1` [Example 75, (S)-N-(4-(6-methoxy-7-(piperidin-3-ylmethoxy)quinazolin-4-yl)phenyl)-2-(4-(trifluoromethyl)phenyl)acetamide], on human PDGFR-β(wt), the IC50 was not above 50 nM. The GI50 with Ba/F3-c-KIT(D816V) and with c-KIT V560G/D816V was not above 200 nM each time.

In the case of `COc1cc2ncnc(-c3ccc(NC(=O)Cc4ccc(C(F)(F)F)cc4)cc3)c2cc1OCCCN1CC(CO)(CO)C1` [Example 150], the IC50 at human PDGFR-β(wt) was not above 50 nM. Besides, the GI50 with Ba/F3-c-KIT(D816V) is more than 500 nM.

With `COc1cc2ncnc(-c3ccc(NC(=O)Cc4ccc(C(F)(F)F)cc4)cc3)c2cc1OC1CCN(C(=O)OC(C)(C)C)CC1` [Example 137, tert-butyl 4-((7-methoxy-4-(4-(2-(4-(trifluoromethyl)phenyl)acetamido)phenyl)quinazolin-6-yl)oxy)piperidin-1-carboxylate], the IC50 on human PDGFR-β(wt) was not above 50 nM. Also, the GI50 in the experiment with Ba/F3-c-KIT(D816V) lay within 200 to 500 nM.

On to `COc1cc2ncnc(-c3ccc(NC(=O)Cc4ccc(C(F)(F)F)cc4)cc3)c2cc1OCC1CCCN(C(=O)OC(C)(C)C)C1` (centres unmarked) [Example 130, tert-butyl 3-(((7-methoxy-4-(4-(2-(4-(trifluoromethyl)phenyl)acetamido)phenyl)quinazolin-6-yl)oxy)methyl)piperidin-1-carboxylate], for which the IC50 on human PDGFR-β(wt) is not above 50 nM. In the experiment on Ba/F3-c-KIT(D816V), the GI50 fell in the range of 200 to 500 nM.

As to `COc1cc2c(-c3ccc(NC(=O)Nc4ccc(Cl)c(C(F)(F)F)c4)cc3)ncnc2cc1OCCCN1CCN(C)CC1` [Example 168, 1-(4-chloro-3-(trifluoromethyl)phenyl)-3-(4-(6-methoxy-7-(3-(4-methylpiperazin-1-yl)propoxy)quinazolin-4-yl)phenyl)urea], the IC50 on human PDGFR-β(wt) lay in the range of 50 to 100 nM.

For `COCCN1CCC(COc2cc3ncnc(-c4ccc(NC(=O)Cc5ccc(C(F)(F)F)nc5)cc4)c3cc2OC)CC1` [Example 96, N-(4-(6-methoxy-7-((1-(2-methoxyethyl)piperidin-4-yl)methoxy)quinazolin-4-yl)phenyl)-2-(6-(trifluoromethyl)pyridin-3-yl)acetamide], the IC50 on human PDGFR-β(wt) was not above 50 nM. Besides, the GI50 in the experiment on c-KIT V560G/D816V is not above 200 nM.

In the case of `COc1cc2c(-c3ccc(NC(=O)Cc4ccc(C(F)(F)F)cc4)cc3)ncnc2cc1OCC1CCN(C)CC1` [Example 56, N-(4-(6-methoxy-7-((1-methylpiperidin-4-yl)methoxy)quinazolin-4-yl)phenyl)-2-(4-(trifluoromethyl)phenyl)acetamide], the IC50 on human PDGFR-β(wt) was not above 50 nM. Further, in the experiment with c-KIT V560G/D816V, the GI50 was not above 200 nM.

Take `COc1cc2c(-c3ccc(NC(=O)Cc4ccc(Cl)nc4)cc3)ncnc2cc1OCC1CCNCC1` [Example 69, 2-(6-chloropyridin-3-yl)-N-(4-(6-methoxy-7-(piperidin-4-ylmethoxy)quinazolin-4-yl)phenyl)acetamide]: the IC50 on human PDGFR-β(wt) was not above 50 nM. In addition, the GI50 in the experiment with Ba/F3-c-KIT(D816V) is not above 200 nM.

As to `COc1cc2c(-c3ccc(NC(=O)Cc4ccc(C(F)(F)F)nc4)cc3)ncnc2cc1OCC1CCN(C)CC1` [Example 101, N-(4-(6-methoxy-7-((1-methylpiperidin-4-yl)methoxy)quinazolin-4-yl)phenyl)-2-(6-(trifluoromethyl)pyridin-3-yl)acetamide], the IC50 at human PDGFR-β(wt) is not above 50 nM. Also, in the experiment on c-KIT V560G/D816V, the GI50 was not above 200 nM.
